We go through 4 compounds from PubChem BioAssay AID1259407 (Chemical Carcinogenesis Research Information System (CCRIS), 2018).

The structures appear in SMILES notation. Calls of active or inactive are those of the source. How the calls were made is not given here.

In this data set the test system is CCRIS mutagenicity, Ames/micronucleus/aberration tests. Briefly: CCRIS mutagenicity studies.
The mark [1] stands for this setting: Test System: MOUSE LYMPHOMA, Strain/Indicator: L5178Y (TK+/TK-), Metabolic Activation: NONE, Method: SUSPENSION/PLATE.
Setting [2] is: Test System: MOUSE LYMPHOMA, Strain/Indicator: L5178Y (TK+/TK-), Metabolic Activation: RAT, LIVER, S-9, AROCLOR 1254, Method: SUSPENSION/PLATE.
[3] abbreviates: Test System: AMES SALMONELLA TYPHIMURIUM, Strain/Indicator: TA1538, Metabolic Activation: NONE, Method: STANDARD PLATE.

On to `ClCC(Cl)CCl`, for which the mutagenic call is, setting by setting: (End Point: IN VITRO CHROMOSOMAL ABERRATIONS, Test System: CHL CELLS, Metabolic Activation: NONE) “inactive; negative”; (End Point: IN VITRO CHROMOSOMAL ABERRATIONS, Test System: CHL CELLS, Metabolic Activation: RAT, LIVER, S-9, SODIUM PHENOBARBITAL AND 5,6-BENZOFLAVONE) “active; positive (structural changes)”; (Test System: AMES SALMONELLA TYPHIMURIUM, Strain/Indicator: TA97, Metabolic Activation: HAMSTER, LIVER, S-9, AROCLOR 1254 (10%), Method: PREINCUBATION) “active; positive”; (Test System: AMES SALMONELLA TYPHIMURIUM, Strain/Indicator: TA97, Metabolic Activation: NONE, Method: PREINCUBATION) “inactive; negative”; (Test System: AMES SALMONELLA TYPHIMURIUM, Strain/Indicator: TA97, Metabolic Activation: RAT, LIVER, S-9, AROCLOR 1254 (10%), Method: PREINCUBATION) “active; positive”; (Test System: AMES SALMONELLA TYPHIMURIUM, Strain/Indicator: TA98, Metabolic Activation: HAMSTER, LIVER, S-9, AROCLOR 1254 (10%), Method: PREINCUBATION) “active; positive”. Besides, the mutagenic call was “inactive; negative” (Test System: AMES SALMONELLA TYPHIMURIUM, Strain/Indicator: TA98, Metabolic Activation: HAMSTER, LIVER, S-9, AROCLOR 1254, Method: PREINCUBATION); “inactive; negative” (Test System: AMES SALMONELLA TYPHIMURIUM, Strain/Indicator: TA98, Metabolic Activation: NONE, Method: PREINCUBATION); “inactive; negative” (Test System: AMES SALMONELLA TYPHIMURIUM, Strain/Indicator: TA98, Metabolic Activation: RAT, LIVER, S-9, AROCLOR 1254, Method: PREINCUBATION); “active; positive” (Test System: AMES SALMONELLA TYPHIMURIUM, Strain/Indicator: TA100, Metabolic Activation: HAMSTER, LIVER, S-9, AROCLOR 1254 (10%), Method: PREINCUBATION); “active; positive” (Test System: AMES SALMONELLA TYPHIMURIUM, Strain/Indicator: TA100, Metabolic Activation: HAMSTER, LIVER, S-9, AROCLOR 1254, Method: PREINCUBATION); “inactive; negative” (Test System: AMES SALMONELLA TYPHIMURIUM, Strain/Indicator: TA100, Metabolic Activation: NONE, Method: PREINCUBATION). For the same compound, the mutagenic call (Test System: AMES SALMONELLA TYPHIMURIUM, Strain/Indicator: TA100, Metabolic Activation: RAT, LIVER, MICROSOMES, PHENOBARBITAL, NADPH COFACTORS, Method: STANDARD PLATE) is “active; positive”; the mutagenic call (Test System: AMES SALMONELLA TYPHIMURIUM, Strain/Indicator: TA100, Metabolic Activation: RAT, LIVER, MICROSOMES, PHENOBARBITAL, Method: STANDARD PLATE) was “inactive; negative”; the mutagenic call (Test System: AMES SALMONELLA TYPHIMURIUM, Strain/Indicator: TA100, Metabolic Activation: RAT, LIVER, S-9, AROCLOR 1254 (10%), Method: PREINCUBATION) was “active; positive”; the mutagenic call (Test System: AMES SALMONELLA TYPHIMURIUM, Strain/Indicator: TA100, Metabolic Activation: RAT, LIVER, S-9, AROCLOR 1254, Method: PREINCUBATION) is “active; positive”; the mutagenic call (Test System: AMES SALMONELLA TYPHIMURIUM, Strain/Indicator: TA1535, Metabolic Activation: HAMSTER, LIVER, S-9, AROCLOR 1254 (10%), Method: PREINCUBATION) is “active; positive”; the mutagenic call (Test System: AMES SALMONELLA TYPHIMURIUM, Strain/Indicator: TA1535, Metabolic Activation: HAMSTER, LIVER, S-9, AROCLOR 1254, Method: PREINCUBATION) was “active; positive”. In addition, the mutagenic call reads like this: (Test System: AMES SALMONELLA TYPHIMURIUM, Strain/Indicator: TA1535, Metabolic Activation: NONE, Method: PREINCUBATION) “inactive; negative”; (Test System: AMES SALMONELLA TYPHIMURIUM, Strain/Indicator: TA1535, Metabolic Activation: RAT, LIVER, S-9, AROCLOR 1254 (10%), Method: PREINCUBATION) “active; positive”; (Test System: AMES SALMONELLA TYPHIMURIUM, Strain/Indicator: TA1535, Metabolic Activation: RAT, LIVER, S-9, AROCLOR 1254, Method: PREINCUBATION) “active; positive”; (Test System: AMES SALMONELLA TYPHIMURIUM, Strain/Indicator: TA1537, Metabolic Activation: HAMSTER, LIVER, S-9, AROCLOR 1254 (10%), Method: PREINCUBATION) “inactive; negative”; (Test System: AMES SALMONELLA TYPHIMURIUM, Strain/Indicator: TA1537, Metabolic Activation: NONE, Method: PREINCUBATION) “inactive; negative”; (Test System: AMES SALMONELLA TYPHIMURIUM, Strain/Indicator: TA1537, Metabolic Activation: RAT, LIVER, S-9, AROCLOR 1254 (10%), Method: PREINCUBATION) “inactive; negative”. In addition, the mutagenic call runs as follows: (Test System: AMES SALMONELLA TYPHIMURIUM, Strain/Indicator: TA1537, Metabolic Activation: RAT, LIVER, S-9, AROCLOR 1254, Method: PREINCUBATION) “inactive; negative”; under setting [1], “inactive; negative”; under setting [2], “active; positive”.
Take `CCC1CCC(CCC(=O)[O-])C1.CCC1CCC(CCC(=O)[O-])C1.[Co+2]` (centres undefined): the mutagenic call by setting is: (Test System: AMES SALMONELLA TYPHIMURIUM, Strain/Indicator: TA98, Metabolic Activation: HAMSTER, LIVER, S-9, AROCLOR 1254 (10%), Method: STANDARD PLATE) “inactive; negative”; (Test System: AMES SALMONELLA TYPHIMURIUM, Strain/Indicator: TA98, Metabolic Activation: NONE, Method: STANDARD PLATE) “inactive; negative”; (Test System: AMES SALMONELLA TYPHIMURIUM, Strain/Indicator: TA98, Metabolic Activation: RAT, LIVER, S-9, AROCLOR 1254 (10%), Method: STANDARD PLATE) “active; positive”; (Test System: AMES SALMONELLA TYPHIMURIUM, Strain/Indicator: TA100, Metabolic Activation: HAMSTER, LIVER, S-9, AROCLOR 1254 (10%), Method: STANDARD PLATE) “inactive; negative”; (Test System: AMES SALMONELLA TYPHIMURIUM, Strain/Indicator: TA100, Metabolic Activation: NONE, Method: STANDARD PLATE) “inactive; negative”; (Test System: AMES SALMONELLA TYPHIMURIUM, Strain/Indicator: TA100, Metabolic Activation: RAT, LIVER, S-9, AROCLOR 1254 (10%), Method: STANDARD PLATE) “inactive; negative”. The mutagenic call was “inactive; negative” (Test System: AMES SALMONELLA TYPHIMURIUM, Strain/Indicator: TA1537, Metabolic Activation: HAMSTER, LIVER, S-9, AROCLOR 1254 (10%), Method: STANDARD PLATE); “inactive; negative” (Test System: AMES SALMONELLA TYPHIMURIUM, Strain/Indicator: TA1537, Metabolic Activation: NONE, Method: STANDARD PLATE); “inactive; negative” (Test System: AMES SALMONELLA TYPHIMURIUM, Strain/Indicator: TA1537, Metabolic Activation: RAT, LIVER, S-9, AROCLOR 1254 (10%), Method: STANDARD PLATE); “inactive; negative” (Test System: AMES SALMONELLA TYPHIMURIUM, Strain/Indicator: TA1538, Metabolic Activation: HAMSTER, LIVER, S-9, AROCLOR 1254 (10%), Method: STANDARD PLATE); “inactive; negative” under setting [3]; “active; positive” (Test System: AMES SALMONELLA TYPHIMURIUM, Strain/Indicator: TA1538, Metabolic Activation: RAT, LIVER, S-9, AROCLOR 1254 (10%), Method: STANDARD PLATE). Besides, the mutagenic call is, setting by setting: under setting [1], “inactive; negative. reevaluation of results: negative”; under setting [2], “inactive; negative. reevaluation of results: equivocal”.
`O=c1ccc2cc3c4c(c2o1)CCCN4CCC3`: the mutagenic call by setting is: under setting [3], “inactive; negative”; (Test System: AMES SALMONELLA TYPHIMURIUM, Strain/Indicator: TA1538, Metabolic Activation: RAT, LIVER, S-9, AROCLOR 1254, Method: STANDARD PLATE) “active; positive”.
On to `O=c1c(O)c(-c2ccc(O)c(O)c2)oc2cc(O)ccc12`, for which the mutagenic call (End Point: IN VITRO CHROMOSOMAL ABERRATIONS, Test System: HUMAN HL60 CELLS, Metabolic Activation: NONE) was “active; positive (structural changes)”; the mutagenic call (End Point: IN VITRO CHROMOSOMAL ABERRATIONS, Test System: HUMAN TK6 CELLS, Metabolic Activation: NONE) is “active; positive (structural changes)”; the mutagenic call (End Point: IN VITRO MICRONUCLEUS, Test System: HUMAN HL60 CELLS, Metabolic Activation: NONE) is “active; positive”; the mutagenic call (End Point: IN VITRO MICRONUCLEUS, Test System: HUMAN TK6 CELLS, Metabolic Activation: NONE) is “active; positive”; the mutagenic call (Test System: Ames Salmonella typhimurium, Strain/Indicator: TA102, Metabolic Activation: None, Method: Preincubation) was “inactive; negative”; the mutagenic call (Test System: Ames Salmonella typhimurium, Strain/Indicator: TA102, Metabolic Activation: Rat, Liver, S-9, Aroclor 1254 in 0.154 M KCl, Method: Preincubation) is “inactive; negative”.
